Laboratory results from patent publication US20250170143A1, “METHODS OF TREATING OCULAR FIBROTIC PATHOLOGIES” (Mayo Foundation for Medical Education and Research, priority 2022, published 2025).
Where two headings read alike, the source gives them in different places.

Experiments:
ARPE-19 cells [1] = assay: Fibronectin deposition assay in TGFβ-stimulated ARPE-19 cells; assay type: cell-based, human; conditions: for IC50: ARPE-19 cells stimulated with TGFβ, incubated 96 hours
Description: ARPE-19 cells were plated into 96-well plates (10,000 cells/well) and allowed to attach. Media was removed and replaced with the media specified in the “Cell Culture” section above, without FBS. Cells were treated for four days±TGFβ (10 ng/mL) and 10 μM loxapine. Cells were fixed with 10% neutral buffered formalin (Sigma-Aldrich) for 15 minutes. Cells were permeabilized with 0.25% Triton X-100 (Sigma-Aldrich) and blocked with 1% BSA for 1 hour. Cells were incubated with mouse monoclonal IgG3 primary antibodies against fibronectin (Santa Cruz Biotechnology), which were diluted 1:400 in 0.25% Triton X-100 (Sigma-Aldrich) with 1% BSA. Cells were incubated with primary antibodies either in 4° C. overnight or at room temperature for 2 hours. Cells were washed with PBS (Gibco), then incubated for 1 hour with Alexa Fluor® 488 donkey anti-mouse IgG (H+L) secondary antibodies (Life Technologies) and DAPI (Thermo Fisher Scientific), which were each diluted 1:1000 in 0.25% Triton X-100 (Sigma-Aldrich) with 1% BSA. Cells were washed again with PBS (Gibco). Immunofluorescence was measured using a Cytation 5 imaging reader (BioTek).
The compounds of this Example were tested using the fibronectin deposition assay described in Example 1. In brief, ARPE-19 cells were stimulated with TGFβ+/−the indicated concentration of each compound. Incubated 96 hours Fixed and immunostained for fibronectin.
In brief, ARPE-19 cells were stimulated with TGFβ+/−the indicated concentration of each compound. Incubated 96 hours, fixed and immunostained for fibronectin.

[2] = tested on: profibrotic gene expression (COL1A1, ACTA2, FN1) in ARPE-19 cells; assay: Profibrotic gene expression by qPCR in ARPE-19 cells treated ±TGFβ; assay type: cell-based, human; conditions: ARPE-19 + TGFβ (10 ng/mL), 24 hours; antagonists 10 μM, pramipexole 1 μM; compared to TGFβ only
Description: ARPE-19 cells were plated into 12 well plates (100,000 cells/well) and allowed to attach. Media was removed and replaced with the media specified in the “Cell Culture” section above, minus FBS. Cells were treated for 24 hours±TGFβ (10 ng/mL), 1 μM pramipexole, and 10 μM loxapine. RNA was isolated using the RNeasy Plus Mini Kit (Qiagen) and the manufacturer's protocol. Isolated RNA was converted to cDNA using the SuperScript VILO cDNA Synthesis Kit (Invitrogen) and the PTC-200 Peltier Thermal Cycler (MJ Research). Quantitative PCR (qPCR) was performed using FastStart Essential DNA Green Master (Roche) and LightCycler 96 (Roche).
After identifying the preferential expression of DRD2 in ARPE-19 cells, the regulatory effects of these receptors on fibrotic activation were elucidated. As to D2 dopamine receptor (FIG. 2A-B), RNA isolation and qPCR were used to measure the transcript levels of fibrotic markers in ARPE-19 cells treated±TGFβ, pramipexole (D2 agonist), and loxapine (D2 antagonist). […] In experiments combining pramipexole and loxapine along with TGFβ negates the activity of the molecules alone, confirming their activity is being driven by their interaction with the D2 receptor (FIG. 2B).
The effect of solnitropine, solupine, and loxapine on the expression of profibrotic genes COL1A1 and FN1 were evaluated as described in Example 1 (FIGS. 7A and 7B). In brief, ARPE-19 cells were treated±TGFβ in the presence of either loxapine, solnitropine, or solupine. Gene expression was measured by qPCR on RNA isolated from the treated cells 24 h after treatment.

mouse eye = assay: Toxicology scoring of mouse eye injected with solupine; assay type: in vivo; conditions: mice, 14 days
Description: Mice were injected with 1 μL of PBS (FIG. 17A), 1 μL PBS containing 10 μg/0.05 mL solupine (FIG. 17B), or 1 μL PBS containing 30 μg/0.05 mL solupine (FIG. 17C). The eyes were then analyzed by a pathologist and scored for the indicated observations of ocular toxicities. over the course of 14 days. Work was performed under contract with Labcorp. N=3-6 mice/group.

ARPE-19 cells [3] = assay: Fibronectin deposition in ARPE-19 cells stimulated with a cocktail of profibrotic ligands; assay type: cell-based, human; conditions: TGF-β1, TGF-β2, TNF-α, FGF-β, PDGF-CC all at 10 ng/mL, 10 μM solupine
Description: ARPE-19 cells were cultured as described in FIGS. 4-6 and fibronectin was measured after stimulating the cells with a combination of profibrotic soluble factors including: T1=TGF-β1, T2=TGF-β2, Tα=TNF-α, Fβ=FGF-β, PC=PDGF-CC, (all at 10 ng/mL). +/−10 μM solupine. N=3. Results: solupine maintains its efficacy at blocking RPE cell fibronectin deposition when profibrotic factors are combined in a cocktail.

[4] = tested on: Human conjunctival fibroblasts; assay: Fibronectin deposition by conjunctival fibroblasts; assay type: cell-based; conditions: conditions of FIGS. 4-6, indicated concentrations of solupine
Description: Human conjunctival fibroblasts were cultured under the same conditions described in FIGS. 4-6 and fibronectin deposition was measured after treating with the indicated concentrations of solupine. N=3.

ARPE-19 cells [5] = assay: Solupine functional stability (stored saline stock vs fresh, FGF-β proliferation readout); assay type: cell-based, human; conditions: dissolved in saline, opaque sealed container, 4° C.; potency compared with fresh stock in FGF-β proliferation
Description: A powder stock of solupine was dissolved in saline and stored in an opaque, sealed container at 4° C. for 90 days. The potency and efficacy of this stored stock was then compared to freshly solubilized stock of solupine dissolved in saline. ARPE-19 cells were cultured for 4 days with FGF-β and the indicated concentration of fresh or 90-day-old solupine stock. Cells were then assayed for proliferation as described herein for FIGS. 10 and 11. N=3. Results: solupine stock is functionally stable for at least 90 days under these conditions.

ARPE-19 cells [6] = assay: PDGF-CC stimulated proliferation; assay type: cell-based, human; conditions: ARPE-19, 10 ng/mL PDGF-CC; compared with methotrexate
Description: Effect of methotrexate, solupine, sertindole, penfluridol, pimozide, and fluspirilene, on FGF-β stimulated proliferation was determined. Methods: ARPE-19 cells were seeded into 96-well plates (1,000 cells/well) and incubated for 6 h at 37° C. After, media was removed and exchanged for media containing 0% fetal bovine serum+/−10 ng/mL FGF-β, and the indicated concentration of compound. Compound concentrations were selected based on the potencies observed in FIGS. 4A-6B, and 9A-9C. After the indicated number of hours, cells were fixed in 4% formalin, and DAPI stained. Cells were then imaged using an automated microscope (Biotek Cytation5) and the number of DAPI nuclei were quantified using onboard software (Gen5). Raw cells/field of view are plotted. N=3. […] FGF-β levels are elevated in patients with PVR.
Effect of methotrexate and solupine on PDGF-CC stimulated proliferation was determined. Methods: experiments were carried out as described in Example 6, except 10 ng/mL PDGF-CC was used to stimulate proliferation. […] PDGF-CC levels are elevated in patients with PVR.

[7] = fibronectin deposition, read-out: IC50
[8] = Homo sapiens, fibronectin deposition, read-out: IC50
[9] = Homo sapiens, read-out: IC50 values (fibronectin deposition)

Row | Structure (SMILES) | IC50 (ARPE-19 cells [1]; [8]) [µM] | further results
1 | CN1CCN(C2=Nc3cc(O)ccc3Oc3ccc(Cl)cc32)CC1 [8-OH-loxapine] | – | IC50 (ARPE-19 cells [1]; [7]): > 10 µM
2 | Clc1ccc2c(c1)N=C(N1CCNCC1)c1ccccc1N2 [N-desmethyl clozapine] | – | IC50 (ARPE-19 cells [1]; [7]): ≤ 5 µM
3 | Cc1cc2c(s1)Nc1ccccc1N=C2N1CCNCC1 [N-desmethyl olanzapine] | – | IC50 (ARPE-19 cells [1]; [7]): ≤ 5 µM
4 | CCN1CCCC1CNC(=O)c1cc(S(=O)(=O)CC)c(N)cc1OC (stereo not shown) [amisulpride] | > 10 | –
5 | O=C1CCc2ccc(OCCCCN3CCN(c4cccc(Cl)c4Cl)CC3)cc2N1 [aripiprazole] | – | fibronectin deposition (ARPE-19 cells [1]; ARPE-19, TGFβ, performed identically to FIGS. 4-6, N=3): blocks fibronectin deposition
6 | O=C(CCCN1CCC(n2c(O)nc3ccccc32)CC1)c1ccc(F)cc1 [benperidol] | ≤ 5 | –
7 | CCN1CCN(c2cc(-c3ccc(F)cc3)c3c(n2)CCCCCC3)CC1 [blonanserin] | 5 to 10 | –
8 | O=C(CCCN1CC=C(n2c(=O)[nH]c3ccccc32)CC1)c1ccc(F)cc1 [droperidol] | 5 to 10 | –
9 | CCc1cc(Cl)c(OC)c(C(=O)NC[C@@H]2CCCN2CC)c1O [eticlopride] | > 10 | –
10 | O=C1NCN(c2ccccc2)C12CCN(CCCC(c1ccc(F)cc1)c1ccc(F)cc1)CC2 [fluspirilene] | ≤ 5 | –
11 | CN1CCN(C2=Nc3ccccc3Oc3ccc(Cl)cc32)CC1 [loxapine] | ≤ 5 | –
12 | O=C1[C@@H]2[C@H]3CC[C@H](C3)[C@@H]2C(=O)N1C[C@@H]1CCCC[C@H]1CN1CCN(c2nsc3ccccc23)CC1 [lurasidone] | ≤ 5 | –
13 | CN(Cc1cnc2nc(N)nc(N)c2n1)c1ccc(C(=O)N[C@@H](CCC(=O)O)C(=O)O)cc1 [methotrexate] | > 10 | –
14 | OC1(c2ccc(Cl)c(C(F)(F)F)c2)CCN(CCCC(c2ccc(F)cc2)c2ccc(F)cc2)CC1 [penfluridol] | ≤ 5 | –
15 | OCCN1CCN(CCCN2c3ccccc3Sc3ccc(Cl)cc32)CC1 [perphenazine] | > 10 | –
16 | O=c1[nH]c2ccccc2n1C1CCN(CCCC(c2ccc(F)cc2)c2ccc(F)cc2)CC1 [pimozide] | ≤ 5 | –
17 | CN1CCC(=C2c3ccccc3CCc3sccc32)CC1 [pizotifen] | ≤ 5 | –
18 | CCN1CCC[C@H]1CNC(=O)c1c(O)c(Cl)cc(Cl)c1OC [raclopride] | > 10 | –
19 | CCN1CCC[C@H]1CNC(=O)c1c(OC)ccc(Br)c1OC [remoxipride] | > 10 | –
20 | O=C1NCCN1CCN1CCC(c2cn(-c3ccc(F)cc3)c3ccc(Cl)cc23)CC1 [sertindole] | ≤ 5 | –
21 | c1ccc2c(c1)Oc1cccnc1N=C2N1CCNCC1 [solnitropine] | ≤ 5 | expression of COL1A1 [2]: significantly reduced; expression of FN1 [2]: significantly reduced; IC50 (ARPE-19 cells [1]; [9]): ≤ 5 µM
22 | c1ccc2c(c1)Oc1sccc1N=C2N1CCNCC1 [solupine] | ≤ 5 | ocular toxicity scoring (mouse eye; eye injection 1 μL PBS containing 10 μg/0.05 mL solupine): No observable toxicity; ocular toxicity scoring (mouse eye; eye injection 1 μL PBS containing 30 μg/0.05 mL solupine): No observable toxicity; fibronectin deposition, cocktail of profibrotic ligands (ARPE-19 cells [3]): blocks fibronectin deposition; fibronectin deposition by conjunctival fibroblasts [4]: does not block fibronectin deposition; functional stability of stock (ARPE-19 cells [5]): at least 90 days; expression of COL1A1 [2]: significantly reduced; expression of FN1 [2]: significantly reduced; potency at blocking PDGF stimulated proliferation (ARPE-19 cells [6]): more potent than methotrexate; IC50 (ARPE-19 cells [1]; [9]): ≤ 5 µM
23 | CCN1CCCC1CNC(=O)c1cc(S(N)(=O)=O)ccc1OC (stereo not shown) [sulpiride] | > 10 | –
24 | O=C(CCCN1CCC(n2c(=S)[nH]c3ccccc32)CC1)c1ccc(F)cc1 [timiperone] | ≤ 5 | –
25 | CN1CCN(CCCN2c3ccccc3Sc3ccc(C(F)(F)F)cc32)CC1 [trifluoperizine] | – | IC50 (ARPE-19 cells [1]; [7]): > 10 µM
